Source: US10240124B2, “Cell culture substrate comprising a laminin and a cadherin” (BioLamina AB, priority 2011, dated 2019)

Columns and labels:
human ES cells (HS181) = test: Cell adhesion assay, Crystal Violet (Example 1); type: cell-based
Protocol: Ninety-six-well tissue cell culture plates were coated overnight at 4° C. with sterile solutions of the ECM proteins mouse LN-111 (Invitrogen), human recombinant LN-511, and human recombinant LN-521, all at a concentration of 30 μg/ml (5 μg/cm^2). For control cells, BD Matrigel™ hESC qualified (BD Biosciences) was used according to the manufacturer's instructions.
The assay was performed as described (Extracellular Matrix Protocols, 2000). Briefly, 96-well plates were coated by extracellular matrix proteins as described above and blocked by O3 medium containing bovine serum albumin. The ES cells were plated at a cell density of 600 cell/mm^2 upon extracellular matrix-coated plates and were left to adhere for either 1 hour or 1 day at the cell incubator. Non-adherent cells were washed away, and adherent cells were fixed for 20 min by 5% glutaraldehyde, stained by 0.1% Crystal Violet.

hES cells [1] = test: Cell adhesion assay, 1 hour (Example 2); type: cell-based, human; details: compared with Matrigel or LN-111, not shown
Protocol: Tissue cell culture plates were coated overnight at 4° C. with sterile solutions of the ECM proteins, such as human recombinant LN-521, all at a concentration of 30 μg/ml (5 μg/cm^2). Control plates were coated with Matrigel according to the STEMCELL Technologies' instructions. Prior to use, dishes were pre-warmed in an incubator for one hour after which prewarmed O3 medium was added without additional washing of the dish. After applying a fresh LN-521 solution to a new dish, the remaining LN-521 solution could be used at least once more. All the adhesion, survival, and inhibition of survival experiments were carried out using fresh coating materials.
Briefly, 96-well plates were coated by extracellular matrix proteins as described above and blocked by O3 medium containing bovine serum albumin. The ES cells were plated at cell density of 50,000 cells/cm^2 onto extracellular matrix-coated plates and left to adhere for 1 hour in a cell incubator. After that the plates were washed 3 times with the medium to remove the non-adherent cells, and then the adherent cells were fixed for 20 minutes by 5% glutaraldehyde, stained by 0.1% Crystal Violet. (Kebo Lab, Spanga, Sweden, http://www.kebolab.se). After one hour and 3 washes with water, Crystal Violet was extracted with 10% acetic acid and quantified by measuring optical density at 570 nm. All the experiments were performed in quadruplicate.

SCID mouse = test: Teratoma formation; type: in vivo; details: HS181 13 passages, H1 12 passages in O3; H1 7 passages in TeSR2
Protocol: Teratoma formation experiments were performed by implantation of approximately 10^6 cells beneath the testicular capsule of a young (7-week-old) severe combined immunodeficiency (SCID) mouse. Three animals per each cell line were used. Teratoma growth was observed by weekly palpation, and the mice were sacrificed eight weeks after the implantation. The teratomas were fixed, and sections were stained with hematoxylin and eosin (HE) or with hematoxylin, eosin and PAS (HE-PAS). […] All animal experiments were performed at the infection-free animal facility of the Karolinska University Hospital in accordance with ethical committee approval.

ES cells = test: Embryoid body formation; type: cell-based, human; details: same three cultures as teratoma test
Protocol: ES cells from LN-521 coated cell culture dishes were exposed to TrypLE™Select for one minute at 37° C., 5% CO2, washes two times with a medium, broken into large pieces and cultured in suspension in low adhesion plates. The medium used for this was Knockout DMEM (GIBCO Invitrogen Corporation) supplemented with 2 mM L-glutamine, 20% fetal calf serum (GIBCO Invitrogen Corporation), 0.1 mM β-mercaptoethanol (GIBCO Invitrogen Corporation) and 1% non-essential amino acids (GIBCO Invitrogen Corporation). After 1-2 weeks in suspension, the embryoid bodies were transferred onto gelatin coated tissue cell culture 96-well plates (Sarstedt), cultured for 1-2 weeks, then fixed, stained with antibodies against markers of all three embryonic germ line layers (smooth muscle actin, MAP-2 and α-fetoprotein) and analyzed as described above for immunofluorescence.

myosin light chain (MLC) = test: Western blot of phosphorylated myosin light chain; type: cell-based, human; details: one and six hours after plating, FIG. 12 and 13
Protocol: HS 181 cells were trypsinized into single cell suspension as described above. For inhibition experiments, the cells were kept in O3 medium with blocking antibodies or pathway inhibitors for 30 minutes and then 450K cells were plated on 35 mm dishes precoated with the appropriate matrix coating. For other experiments, same number of cells was plated directly after trypsinization. […] After two washings in ice-cold PBS, the plates with cells were snap frozen in liquid nitrogen and stored at −80° C. To prepare samples for western blots and ELISA, the plates were slowly thawed and kept on ice with 100-150 μl of lysis buffer (50 mM Tris-HCl, pH7.5, 150 mM NaCl, 0.5% deoxycholate, 0.5% SDS, 1% Triton X-100, 1% Igepal, Complete™ (Roche) and Phospho-Stop™ (Roche)) on top. Then, the cells were scraped, pipetted and sheared through a 27 G ¾″ needle. After that, the cell pellets were clarified by centrifugation at 16,100 rcf for 15 minutes at 4° C. For western blots, 4-12% gradient gels were used for SDS electrophoresis and the proteins were transferred to PVDF membranes. The membrane was hybridized with the antibody of interest according to the manufacturer's instructions. […] For the densitometry analysis the films were scanned at 2,400 dpi and analyzed by the Chemilmager5500 program (1 D-Multi Line densitometry mode). […]

hES cells [2] = test: In vivo imaging and migration assay; type: cell-based, human
Protocol: 24-well plates were coated by extracellular matrix proteins and blocked by O3 medium containing bovine serum albumin. The ES cells were plated at cell density of 30,000-40,000 cells/cm^2 onto extracellular matrix-coated plates and left to adhere for half an hour in a cell incubator. After that, the plate was transferred into high content imaging system Operetta (PerkinElmer) equipped with environmental control unit, which allowed to keep 37° C., 5% CO2. For two movies that were made, the brightfield images were taken once in 15 minutes during 24 hours after plating using Harmony software (PerkinElmer), exported, and analyzed using ImageJ software (NIH, the US). For migration assay the images were taken every seven minutes during 18 hours after plating. Images acquired between the fifth and seventh hours after plating were analyzed using MTrackJ plug-in (University Medical Center, Rotterdam, The Netherlands). 100 attached cells on each coating were traced and mean distances from the current to the previous point of the track were calculated. Error bars show standard error of the mean s.e.m. (n=100).

Integrin α6β1 = Integrin α6β1 (Homo sapiens, UniProt P05556+P23229); details: cited from earlier work
Chain of Integrin α6β1 (P23229 24-1130): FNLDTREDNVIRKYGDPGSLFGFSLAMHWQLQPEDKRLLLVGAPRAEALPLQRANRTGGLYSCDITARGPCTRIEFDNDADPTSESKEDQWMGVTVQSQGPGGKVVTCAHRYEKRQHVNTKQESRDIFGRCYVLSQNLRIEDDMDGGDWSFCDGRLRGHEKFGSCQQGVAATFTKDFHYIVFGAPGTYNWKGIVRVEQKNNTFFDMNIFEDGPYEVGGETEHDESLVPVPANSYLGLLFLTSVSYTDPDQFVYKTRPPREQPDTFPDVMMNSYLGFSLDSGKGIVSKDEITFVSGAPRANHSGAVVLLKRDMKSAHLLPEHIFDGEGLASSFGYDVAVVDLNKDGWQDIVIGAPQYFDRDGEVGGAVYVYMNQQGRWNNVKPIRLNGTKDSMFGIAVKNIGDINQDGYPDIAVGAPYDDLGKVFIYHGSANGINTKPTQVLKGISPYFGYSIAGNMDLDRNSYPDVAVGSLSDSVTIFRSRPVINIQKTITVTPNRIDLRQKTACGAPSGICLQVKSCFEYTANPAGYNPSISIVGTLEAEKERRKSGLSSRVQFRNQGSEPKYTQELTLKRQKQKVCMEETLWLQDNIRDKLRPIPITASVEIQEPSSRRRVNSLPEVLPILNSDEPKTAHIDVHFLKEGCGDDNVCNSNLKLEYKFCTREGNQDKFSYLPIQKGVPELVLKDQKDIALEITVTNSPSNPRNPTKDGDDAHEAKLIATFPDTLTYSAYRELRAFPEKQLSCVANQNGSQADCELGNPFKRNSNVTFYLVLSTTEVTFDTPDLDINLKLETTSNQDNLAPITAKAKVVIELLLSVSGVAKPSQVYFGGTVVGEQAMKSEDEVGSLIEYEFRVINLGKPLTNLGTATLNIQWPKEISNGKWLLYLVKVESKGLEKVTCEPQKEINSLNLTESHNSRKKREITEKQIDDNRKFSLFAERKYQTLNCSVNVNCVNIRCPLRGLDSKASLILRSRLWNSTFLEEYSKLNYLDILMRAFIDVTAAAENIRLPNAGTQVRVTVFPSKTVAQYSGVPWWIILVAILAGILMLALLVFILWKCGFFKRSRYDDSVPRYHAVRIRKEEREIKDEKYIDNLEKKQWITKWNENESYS
Chain of Integrin α6β1 (P05556 21-798): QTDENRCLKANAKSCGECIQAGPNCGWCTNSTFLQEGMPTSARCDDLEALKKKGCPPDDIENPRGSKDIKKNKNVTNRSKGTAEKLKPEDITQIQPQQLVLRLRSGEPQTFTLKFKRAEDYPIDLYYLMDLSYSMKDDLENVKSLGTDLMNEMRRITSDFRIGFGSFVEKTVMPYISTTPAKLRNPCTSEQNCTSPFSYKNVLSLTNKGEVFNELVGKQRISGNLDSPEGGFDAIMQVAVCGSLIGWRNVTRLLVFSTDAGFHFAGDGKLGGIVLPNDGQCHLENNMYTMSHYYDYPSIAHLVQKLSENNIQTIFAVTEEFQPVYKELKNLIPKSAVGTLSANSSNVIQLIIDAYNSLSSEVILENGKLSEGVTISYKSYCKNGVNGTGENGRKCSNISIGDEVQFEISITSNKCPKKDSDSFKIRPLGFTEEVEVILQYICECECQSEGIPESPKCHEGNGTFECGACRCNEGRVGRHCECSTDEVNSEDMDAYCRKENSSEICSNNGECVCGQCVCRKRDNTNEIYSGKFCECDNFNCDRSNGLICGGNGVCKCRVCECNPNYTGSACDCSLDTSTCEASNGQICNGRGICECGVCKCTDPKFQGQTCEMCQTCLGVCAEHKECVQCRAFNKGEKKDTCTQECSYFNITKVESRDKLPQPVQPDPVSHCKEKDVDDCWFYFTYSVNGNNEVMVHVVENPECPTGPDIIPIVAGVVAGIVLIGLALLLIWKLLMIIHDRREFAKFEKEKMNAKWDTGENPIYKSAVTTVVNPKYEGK

## LN-521: protein formed by joining α5, β2 and γ1 laminin chains; human recombinant, produced in HEK293 cells
Human ES cells (HS181); FIG. 7
  adhesion at 1 day without additives compared with all dishes including the ROCK inhibitor: similar
Human ES cells (HS181); HS181 completely dissociated, O3 medium without any additives, FIG. 4
  cells remaining attached / surviving 24 hours after plating: survived
Human ES cells (HS181); O3 medium without any additives, without Y-27632, FIG. 6
  adhesion of human ES cells at 1 hour: roughly the same
Human ES cells (HS181); without additives, FIG. 7
  adhesion at 1 day relative to Matrigel without additives: 20 times
hES cells [1]
  spreading of the cells after one hour: clearly better
SCID mouse
  histology of teratomas formed in SCID mice: development of tissues containing all three germ lineages
ES cells
  differentiation in vitro, embryoid bodies expressing markers of mesoderm, ectoderm and endoderm: retained the competence to form embryoid bodies
Myosin light chain (MLC)
  phosphorylation of MLC compared with cells on Matrigel and LN-111: even higher
hES cells [2]; 24 hours imaging
  cell migration by imaging compared with Matrigel: much faster
hES cells [2]; between the fifth and seventh hours after plating, FIG. 14
  motility of hES cells compared with other coatings: higher than that of the cells on other coatings
Integrin α6β1
  binding affinity of integrin α6β1 compared with LN-111: higher than that for LN-111
